Source: PMC2649009 (Journal of medicinal chemistry, 2008)
“And” between values parts separate entries of the source, which are not always exact repeats. Equal entries are not always repeated.

Molecular target: T1, human GVIA iPLA2 (Homo sapiens, UniProt O60733)
T1 sequence (O60733 1-806): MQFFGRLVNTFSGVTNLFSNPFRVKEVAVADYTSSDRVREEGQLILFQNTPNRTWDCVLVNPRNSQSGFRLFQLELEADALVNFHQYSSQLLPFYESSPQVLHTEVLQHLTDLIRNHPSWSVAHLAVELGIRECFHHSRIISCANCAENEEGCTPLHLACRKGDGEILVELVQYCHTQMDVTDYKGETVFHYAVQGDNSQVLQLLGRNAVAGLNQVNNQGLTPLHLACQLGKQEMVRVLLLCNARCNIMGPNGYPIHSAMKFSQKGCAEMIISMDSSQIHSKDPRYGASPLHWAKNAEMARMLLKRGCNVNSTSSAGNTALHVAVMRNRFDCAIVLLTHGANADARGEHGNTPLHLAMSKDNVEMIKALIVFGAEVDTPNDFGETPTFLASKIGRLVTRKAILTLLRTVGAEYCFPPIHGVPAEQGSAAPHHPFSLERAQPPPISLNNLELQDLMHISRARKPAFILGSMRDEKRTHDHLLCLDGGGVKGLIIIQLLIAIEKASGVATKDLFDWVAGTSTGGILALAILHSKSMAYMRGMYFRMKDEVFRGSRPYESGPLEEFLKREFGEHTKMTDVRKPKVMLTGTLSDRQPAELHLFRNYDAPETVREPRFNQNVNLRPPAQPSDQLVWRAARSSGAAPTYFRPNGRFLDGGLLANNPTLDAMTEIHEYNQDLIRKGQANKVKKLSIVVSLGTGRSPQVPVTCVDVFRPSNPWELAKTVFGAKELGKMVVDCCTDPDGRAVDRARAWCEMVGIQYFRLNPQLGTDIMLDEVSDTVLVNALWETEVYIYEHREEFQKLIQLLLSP
Assay: mixed micelle-based modified Dole assay, GVIA iPLA2 inhibition
Assay type: biochemical
Conditions: for GVIA iPLA2 XI(50): mole fraction of inhibitor in total substrate interface giving 50% inhibition

SMILES | GVIA iPLA2 XI(50) | potency as inhibitor of GVIA iPLA2 relative to trifluoro derivative 6 (ratio of XI(50) values, 26 vs 6)
O=C(CCCCc1ccccc1)C(F)(F)C(F)(F)F [10a, 1,1,1,2,2-Pentafluoro-7-phenyl-heptan-3-one] | 0.0073 mole fraction and 0.0073 ± 0.0007 mole fraction | –
O=C(CCCCCc1ccccc1)C(F)(F)C(F)(F)F [10b, 1,1,1,2,2-Pentafluoro-8-phenyl-octan-3-one] | 0.0065 mole fraction | –
O=C(CCCCCCc1ccccc1)C(F)(F)C(F)(F)F [10c, 1,1,1,2,2-Pentafluoro-9-phenyl-nonan-3-one] | 0.0065 mole fraction | –
O=C(CCCCCc1ccccc1)C(F)(F)F [12a, 1,1,1-Trifluoro-7-phenylheptan-2-one] | 0.0025 mole fraction | –
O=C(CCCCCCc1ccccc1)C(F)(F)F [12b, 1,1,1-Trifluoro-8-phenyloctan-2-one] | 0.0018 mole fraction | –
CCCCCCOc1ccc(CCC(=O)C(F)(F)F)cc1 [19a, 1,1,1-Trifluoro-4-(4-hexyloxy-phenyl)-butan-2-one] | 0.0328 ±0.0035 mole fraction | –
CCCCCCCCCCCCCCCC(=O)C(F)(F)F [compound 6, palmitoyl trifluoromethyl ketone, reference compound] | 0.0195 mole fraction | –
CCCCCCOc1ccc(CCC(=O)C(F)(F)C(F)(F)F)cc1 [compound 21, 1,1,1,2,2-Pentafluoro-5-(4-hexyloxy-phenyl)-pentan-3-one] | 0.0075 mole fraction | –
CCCCCCCCCCCCCCC(F)C(=O)C(F)(F)F (stereo not shown) [compound 26, 1,1,1,3-Tetrafluoro-heptadecan-2-one] | 0.0011 mole fraction | approximately twenty-fold
